According to publication PMC4162805 (European journal of medicinal chemistry, 2014):
Entries after “also recorded” stand apart in the source; their conditions may differ.

What was measured:
[1] = molecular target: T1, κ-opioid receptor (KOR) (Homo sapiens, UniProt P41145); type: binding
[2] = molecular target: hKOR receptor (Homo sapiens, UniProt P41145); assay: cell-based
[3] = molecular target: δ-opioid receptor (DOR) (Homo sapiens, UniProt P41143); assay: Radioligand binding at DOR against [3H]DADLE
[4] = molecular target: T1, κ-opioid receptor (KOR); conditions: previously observed; cited from earlier work

T1 sequence (P41145 whole entry): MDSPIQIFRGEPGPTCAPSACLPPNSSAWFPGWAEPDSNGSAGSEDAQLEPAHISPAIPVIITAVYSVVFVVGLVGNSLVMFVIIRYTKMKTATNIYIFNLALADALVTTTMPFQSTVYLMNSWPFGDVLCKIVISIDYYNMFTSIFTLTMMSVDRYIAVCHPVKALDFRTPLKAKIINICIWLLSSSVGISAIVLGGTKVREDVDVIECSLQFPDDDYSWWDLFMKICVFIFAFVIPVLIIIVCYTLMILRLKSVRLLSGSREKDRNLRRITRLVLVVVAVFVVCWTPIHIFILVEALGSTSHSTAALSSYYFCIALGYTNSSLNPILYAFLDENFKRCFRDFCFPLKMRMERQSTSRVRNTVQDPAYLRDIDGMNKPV
Chain of hKOR receptor (P41145 whole entry): as above
Chain of δ-opioid receptor (DOR) (P41143 whole entry): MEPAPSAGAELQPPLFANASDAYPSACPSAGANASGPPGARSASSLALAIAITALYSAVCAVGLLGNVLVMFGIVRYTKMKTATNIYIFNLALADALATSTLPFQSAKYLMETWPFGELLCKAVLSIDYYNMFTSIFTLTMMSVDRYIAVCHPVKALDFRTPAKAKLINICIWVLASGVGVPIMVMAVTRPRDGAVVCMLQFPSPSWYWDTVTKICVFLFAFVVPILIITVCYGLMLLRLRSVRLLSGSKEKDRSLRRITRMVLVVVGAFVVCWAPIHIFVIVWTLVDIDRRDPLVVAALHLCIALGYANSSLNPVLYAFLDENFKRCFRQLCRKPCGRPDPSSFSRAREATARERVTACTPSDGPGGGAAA

Row | SMILES | Selectivity DOR/KOR [1] | Selectivity MOR/KOR [1] | further results
1 | COC(=O)[C@@H]1C[C@H](OC(=O)/C=C/c2ccccc2)C(=O)[C@H]2[C@@]1(C)CC[C@H]1C(=O)O[C@H](c3ccoc3)C[C@]21C [5a, 2-O-Cinnamoylsalvinorin B] | – | – | fold increased KOR affinity compared to 4a [1]: 2 fold; IC50 [2]: 7 nM; fold lower cAMP inhibition level (efficacy) than 1 [2]: 20 ×
2 | C=CC(=O)O[C@H]1C[C@@H](C(=O)OC)[C@]2(C)CC[C@H]3C(=O)O[C@H](c4ccoc4)C[C@]3(C)[C@H]2C1=O [4a, 2-O-Acryloylsalvinorin B] | >552 | – | fold reduced KOR affinity compared to 1 [1]: 6 fold; fold lower cAMP inhibition level (efficacy) than 1 [2]: 380 ×
3 | COC(=O)[C@@H]1C[C@H](OC(=O)/C=C/c2ccccc2C(F)(F)F)C(=O)[C@H]2[C@@]1(C)CC[C@H]1C(=O)O[C@H](c3ccoc3)C[C@]21C [5j, 2-O-(2″-Trifluoromethylcinnamoyl)salvinorin B] | >77 | >77 | –
4 | COC(=O)[C@@H]1C[C@H](OC(=O)/C=C/c2cc(C(F)(F)F)ccc2C(F)(F)F)C(=O)[C@H]2[C@@]1(C)CC[C@H]1C(=O)O[C@H](c3ccoc3)C[C@]21C [5l, 2-O-[2″,5″-bis(Trifluoromethyl)cinnamoyl]salvinorin B] | <0.58 | – | affinity for KOR (in words) [1]: no substantial affinity
5 | C=C(C)C(=O)O[C@H]1C[C@@H](C(=O)OC)[C@]2(C)CC[C@H]3C(=O)O[C@H](c4ccoc4)C[C@]3(C)[C@H]2C1=O [4b, 2-O-Methacryloylsalvinorin B] | – | >293 | –
6 | COC(=O)[C@@H]1C[C@H](OC(=O)/C=C/c2ccccc2OC)C(=O)[C@H]2[C@@]1(C)CC[C@H]1C(=O)O[C@H](c3ccoc3)C[C@]21C [5b, 2-O-(2″-Methoxycinnamoyl)salvinorin B] | >154 | >154 | –
7 | COC(=O)[C@@H]1C[C@H](OC(=O)/C=C/c2ccc(OC)cc2)C(=O)[C@H]2[C@@]1(C)CC[C@H]1C(=O)O[C@H](c3ccoc3)C[C@]21C [5c, 2-O-(4″-Methoxycinnamoyl)salvinorin B] | >74 | >74 | –
8 | COC(=O)[C@@H]1C[C@H](OC(=O)/C=C/c2ccc3c(c2)OCO3)C(=O)[C@H]2[C@@]1(C)CC[C@H]1C(=O)O[C@H](c3ccoc3)C[C@]21C [5g, 2-O-(3″,4″-Dioxymethylenecinnamoyl)salvinorin B] | >31 | – | –
9 | COC(=O)[C@@H]1C[C@H](OC(=O)/C=C/c2ccccc2[N+](=O)[O-])C(=O)[C@H]2[C@@]1(C)CC[C@H]1C(=O)O[C@H](c3ccoc3)C[C@]21C [5h, 2-O-(2″-Nitrocinnamoyl)salvinorin B] | >67 | >67 | –
10 | C/C=C(\C)C(=O)O[C@H]1C[C@@H](C(=O)OC)[C@]2(C)CC[C@H]3C(=O)O[C@H](c4ccoc4)C[C@]3(C)[C@H]2C1=O [4g, 2-O-(2′,3′-Dimethylacryloyl)salvinorin B] | >65 | >65 | fold reduced KOR affinity compared to 4a [1]: 8 fold
11 | C/C=C/C(=O)O[C@H]1C[C@@H](C(=O)OC)[C@]2(C)CC[C@H]3C(=O)O[C@H](c4ccoc4)C[C@]3(C)[C@H]2C1=O [4e, 2-O-Crotonoylsalvinorin B] | >395 | – | –
12 | COC(=O)[C@@H]1C[C@H](OC(=O)/C=C/c2ccc(OC)cc2OC)C(=O)[C@H]2[C@@]1(C)CC[C@H]1C(=O)O[C@H](c3ccoc3)C[C@]21C [5e, 2-O-(2″,4″-Dimethoxycinnamoyl)salvinorin B] | >62 | >62 | –
13 | C=C(C)CC(=O)O[C@H]1C[C@@H](C(=O)OC)[C@]2(C)CC[C@H]3C(=O)O[C@H](c4ccoc4)C[C@]3(C)[C@H]2C1=O [4d, 2-O-(3′-Methylbut-3′-enoyl)salvinorin B] | >1666 | – | fold increased KOR affinity compared to 4a [1]: 3 fold
14 | COC(=O)[C@@H]1C[C@H](OC(=O)/C=C/c2cc(OC)c(OC)c(OC)c2)C(=O)[C@H]2[C@@]1(C)CC[C@H]1C(=O)O[C@H](c3ccoc3)C[C@]21C [5f, 2-O-(3″,4″,5″-Trimethoxycinnamoyl)salvinorin B] | – | – | affinity for DOR (in words) [3]: no appreciable affinity; affinity for KOR (in words) [1]: no appreciable affinity; also recorded: no substantial affinity
15 | COC(=O)[C@@H]1C[C@H](OC(=O)CSC#N)C(=O)[C@H]2[C@@]1(C)CC[C@H]1C(=O)O[C@H](c3ccoc3)C[C@]21C [RB-64, 22-thiocyanatosalvinorin A] | – | – | wash-resistant irreversible binding at KOR [4]: wash-resistant irreversible binding
16 | COC(=O)[C@@H]1C[C@H](OC(=O)/C=C/c2cccnc2)C(=O)[C@H]2[C@@]1(C)CC[C@H]1C(=O)O[C@H](c3ccoc3)C[C@]21C [5m, 2-O-[3′-(3″-Pyridyl)acryloyl]salvinorin B] | <0.48 | <0.03 | affinity for KOR (in words) [1]: no substantial affinity
17 | COC(=O)[C@@H]1C[C@H](OC(=O)/C=C/c2cc(OC)ccc2OC)C(=O)[C@H]2[C@@]1(C)CC[C@H]1C(=O)O[C@H](c3ccoc3)C[C@]21C [5d, 2-O-(2″,5″-Dimethoxycinnamoyl)salvinorin B] | >17 | >17 | –
18 | COC(=O)[C@@H]1C[C@H](OC(=O)/C=C/c2ccc([N+](=O)[O-])cc2)C(=O)[C@H]2[C@@]1(C)CC[C@H]1C(=O)O[C@H](c3ccoc3)C[C@]21C [5i, 2-O-(4″-Nitrocinnamoyl)salvinorin B] | >35 | >35 | –
19 | COC(=O)[C@@H]1C[C@H](OC(=O)C=C(C)C)C(=O)[C@H]2[C@@]1(C)CC[C@H]1C(=O)O[C@H](c3ccoc3)C[C@]21C [4c, 2-O-(3′,3′-Dimethylacryloyl)salvinorin B] | – | – | fold reduced KOR affinity compared to 4a [1]: 21 fold
